Test results published in US5389641A, “Fused heterocyclic compounds, having angiotensin II antagonistic activity” (Takeda Chemical Industries, Ltd., priority 1991, dated 1995).

How the values were obtained:
AII receptor = molecular target: T1, AII receptor (Bos taurus, UniProt P25104); experiment: Inhibition of binding of [125I]-angiotensinII to AII receptor (radioreceptor assay); details: 1 h, membrane fraction from bovine adrenal cortex, room temperature, one hour; for inhibition at 1 µM: 10^-6 (M); for inhibition at 0.1 µM: 10^-7 (M)
T1 construct: An AII receptor membrane fraction was prepared from bovine adrenal cortex; from tissue; host or cells: bovine adrenal cortex, membrane fraction
T1 sequence (P25104 1-359): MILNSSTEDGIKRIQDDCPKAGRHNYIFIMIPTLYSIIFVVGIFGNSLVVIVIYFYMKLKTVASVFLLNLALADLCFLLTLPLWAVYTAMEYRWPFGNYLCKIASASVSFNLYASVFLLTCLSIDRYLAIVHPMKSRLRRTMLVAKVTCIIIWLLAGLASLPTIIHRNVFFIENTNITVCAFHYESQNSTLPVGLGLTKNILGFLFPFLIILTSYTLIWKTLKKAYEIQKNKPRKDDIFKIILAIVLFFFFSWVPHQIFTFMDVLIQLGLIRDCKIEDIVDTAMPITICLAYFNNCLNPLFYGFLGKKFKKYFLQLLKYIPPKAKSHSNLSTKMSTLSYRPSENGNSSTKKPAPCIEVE
Method: An experiment of inhibition on the binding of angiotensinII (AII) to AII receptor was conducted by modifying the method of Douglas et al. [Endocrinology, 102, 685-696 (1978)]. An AII receptor membrane fraction was prepared from bovine adrenal cortex.
The compound of the present invention (10 ^-6 M or 10^-7 M) and [^125 I]-angiotensinII ([^125 I]-AII) (1.85 kBq/50 μl) were added to the receptor membrane fraction, and the mixture was incubated at room temperature for one hour. The receptor-bound and free [^125 I]-AII were separated through a filter (Whatman GF/B filter), and the radioactivity of [^125 I]-AII bound to the receptor was measured.

[1] = reported in literature; cited from earlier work

inhibition at 1 µM (AII receptor) [%] | inhibition at 0.1 µM (AII receptor) [%] | SMILES | angiotensinII antagonist activity [1]
91 | 60 | CCCc1cn2ncc(C(=O)O)c2n1Cc1ccc(-c2ccccc2-c2nn[nH]n2)cc1 [Example 6, 5-Propyl-4-[[2'-(1H-tetrazol-5-yl)biphenyl-4-yl]methyl]-imidazo[1,2-b]pyrazol-3-carboxylic acid] | –
– | – | CNCC(=O)N[C@@H](CCCN=C(N)N)C(=O)N[C@H](C(=O)N[C@@H](Cc1ccc(O)cc1)C(=O)N[C@H](C(=O)N[C@@H](Cc1cnc[nH]1)C(=O)N1CCC[C@H]1C(=O)N[C@@H](C)C(=O)O)C(C)C)C(C)C [saralasin] | potent
92 | 63 | CCCCc1nc2c(C)cnc(C(=O)O)c2n1Cc1ccc(-c2ccccc2-c2nnn[nH]2)cc1 [Example 1, 2-Butyl-7-methyl-3-[[2'-(1H-tetrazol-5-yl)biphenyl-4-yl]methyl]-3H-imidazo[4,5-c]pyridine-4-carboxylic acid] | –
69 | 31 | CCc1cc2c(=O)c3cccc(C(=O)OCOC(=O)C(C)(C)C)c3n(Cc3ccc(-c4ccccc4-c4nnn[nH]4)cc3)c2s1 [Example 14, Pivaloyloxymethyl 2-ethyl-4-oxo-9-[[2'-(1H-tetrazol-5-yl)biphenyl-4-yl]methyl]-4,9-dihydrothieno[2,3-b]quinoline-8-carboxylate] | –
39 | 0 | CCCc1cc2cccc(C(=O)O)c2n1Cc1ccc(-c2ccccc2-c2nnn[nH]2)cc1 [Example 17, 2-Propyl-1-[[2'-(1H-tetrazol-5-yl)biphenyl-4-yl]methyl]indole-7-carboxylic acid] | –
61 | 21 | CCCc1nn2ncc(C(=O)OCOC(=O)C(C)(C)C)c2n1Cc1ccc(-c2ccccc2-c2nnn[nH]2)cc1 [Example 20, Pivaloyloxymethyl 2-propyl-1-[[2'-(1H-tetrazol-5-yl)biphenyl-4-yl]methyl]-1H-pyrazolo[1,5-b][1,2,4]triazole-7-carboxylate] | –
19 | 1 | CCc1cc2c(=O)c3cccc(C(=O)OC(C)OC(=O)OC4CCCCC4)c3n(Cc3ccc(-c4ccccc4-c4nnn[nH]4)cc3)c2s1 (stereo not drawn) [Example 15, 1-(Cyclohexyloxycarbonyloxy)ethyl 2-ethyl-4-oxo-9-[[2'-(1H-tetrazol-5-yl)biphenyl-4-yl]methyl]-4,9-dihydrothieno[2,3-b]quinoline-8-carboxylate] | –
49 | 20 | CCOc1nc(C(=O)O)c2c(n1)nc(OCC)n2Cc1ccc(-c2ccccc2-c2nnn[nH]2)cc1 [Example 13, 2,8-Diethoxy-7-[[2'-(1H-tetrazol-5-yl)biphenyl-4-yl]methyl]purine-6-carboxylic acid] | –
92 | 54 | CCCc1nc2c(C)cnc(C(=O)O)c2n1Cc1ccc(-c2ccccc2-c2nnn[nH]2)cc1 [Example 2, 2-Propyl-7-methyl-3-[[2'-(1H-tetrazol-5-yl)biphenyl-4-yl]methyl]-3H-imidazo[4,5-c]pyridine-4-carboxylic acid] | –
80 | 39 | CCCCc1nc2cccc(C(=O)O)c2n1Cc1ccc2c(=O)n(-c3ccccc3-c3nnn[nH]3)cnc2c1 [Example 26, 2-Butyl-1-[[4-oxo-3-[2-(1H-tetrazol-5-yl)phenyl]-3,4-dihydroquinazolin-7-yl]methyl]benzimidazole-7-carboxylic acid] | –
70 | 26 | CCCCc1nc2cccc(C(=O)O)c2n1Cc1ccc(-c2ccccc2-c2nnn[nH]2)nc1 [Example 21, 2-Butyl-1-[[2-[2-(1H-tetrazol-5-yl)phenyl]pyridin-5-yl]methyl]benzimidazole-7-carboxylic acid] | –
86 | 54 | CCCc1nn2ncc(C(=O)O)c2n1Cc1ccc(-c2ccccc2-c2nnn[nH]2)cc1 [Example 11, 2-Propyl-1-[[2'-(1H-tetrazol-5-yl)biphenyl-4-yl]methyl]-1H-pyrazolo[1,5-b][1,2,4]triazole-7-carboxylic acid] | –
67 | 27 | CCCCc1nc2cccc(C(=O)O)c2n1Cc1ccc(-n2cccc2-c2nnn[nH]2)cc1 [Example 7, 2-Butyl-1-[[4-[2-(1H-tetrazol-5-yl)-1-pyrrolyl]phenyl]methyl]benzimidazole-7-carboxylic acid] | –
49 | 12 | CCc1cc2c(=O)c3cccc(C(=O)O)c3n(Cc3ccc(-c4ccccc4-c4nnn[nH]4)cc3)c2s1 [Example 3, 2-Ethyl-4-oxo-9-[[2'-(1H-tetrazol-5-yl)biphenyl-4-yl]methyl]-4,9-dihydrothieno[2,3-b]quinoline-8-carboxylic acid] | –
